In patent publication US12534456B2, “Heterocyclyl pyridines as novel fungicides” (Bayer Aktiengesellschaft, priority 2020, dated 2026):

Tests used:
physchem = type: physicochemical
Protocol: Measurement of Log P values as provided herein was performed according to EEC directive 79/831 Annex V.A8 by HPLC (High Performance Liquid Chromatography) on reversed phase columns with the following methods: • ^[a]
If more than one Log P value is available within the same method, all the values are given and separated by “+”.
Lambda-max-values were determined using UV-spectra from 200 nm to 400 nm and the peak values of the chromatographic signals

[1] = system: Colletotrichum lindemuthianum; assay: Colletotrichum lindemuthianum in vitro cell test; type: cell-based; conditions: 144 h, 20 ppm of active ingredient, liquid culture with spores, 6 days incubation, spectrometric measurement of mycelium growth, read-out: efficacy (inhibition of fungal growth)
Protocol: (§1) B-7. Colletotrichum lindemuthianum In Vitro Cell Test • Solvent: DMSO • Culture medium: 14.6 g anhydrous D-glucose (VWR), 7.1 g Mycological Peptone (Oxoid), 1.4 g granulated Yeast Extract (Merck), QSP 1 liter • Inoculum: spores suspension • Fungicides were solubilized in DMSO and the solution used to prepare the required range of concentrations. […] A spore suspension of C. lindemuthianum was prepared and diluted to the desired spore density. Fungicides were evaluated for their ability to inhibit spores germination and mycelium growth in liquid culture assay. The compounds were added in the desired concentration to the culture medium with spores. After 6 days incubation, fungi-toxicity of compounds was determined by spectrometric measurement of mycelium growth. Inhibition of fungal growth was determined by comparing the absorbance values in wells containing the fungicides with the absorbance in control wells without fungicides.

Pyricularia oryzae = assay: microbe, parasite or virus in culture; type: cell-based; conditions: 120 h, read-out: efficacy (inhibition of fungal growth)
Alternaria alternata = Alternaria alternata in vitro cell test; type: cell-based; conditions: 120 h, 20 ppm of active ingredient, liquid culture with spores, 5 days incubation, spectrometric measurement of mycelium growth, read-out: efficacy (inhibition of fungal growth)
Protocol: as §1, with “B-5. Alternaria alternata In” for “B-7. Colletotrichum lindemuthianum In”, “of A. alternata” for “of C. lindemuthianum”, “inhibit spore” for “inhibit spores”, “After 5” for “After 6”

[2] = Table 1, compounds of formula (I), method [a]: LC-UV, acidic range, 0.1% formic acid in water and acetonitrile

Cc1ccc(CC2CON=C(c3cc(N4CCCC4)ncc3Oc3cccc(C(F)(F)F)c3)N2)cc1 (racemic) [Compound I-056, (5RS)-5-(4-methylbenzyl)-3-{2-(pyrrolidin-1-yl)-5-[3-(trifluoromethyl)phenoxy]pyridin-4-yl}-5,6-dihydro-4H-1,2,4-oxadiazine]
chromatographic logP (physchem; [2]): 3.5
inhibition at 20 ppm [1]: 90 to 100%
inhibition at 20 ppm (Pyricularia oryzae): 80 to 89%
inhibition at 20 ppm (Alternaria alternata): 90 to 100%

Cc1ccc(CC2CCN=C(c3cc(Cl)ncc3Oc3cccc(C(F)(F)F)c3)N2)c(C)c1 (racemic) [Compound I-088, rac-(6R)-2-[2-chloro-5-[3-(trifluoromethyl)phenoxy]-4-pyridyl]-6-[(2,4-dimethylphenyl)methyl]-1,4,5,6-tetrahydropyrimidine]
chromatographic logP (physchem; [2]): 2.62
inhibition at 20 ppm [1]: 70 to 79%
inhibition at 20 ppm (Alternaria alternata): 80 to 89%

Cc1ccc(CC2CC(=O)N=C(c3cc(Cl)ncc3Oc3cccc(C(F)(F)F)c3)N2)c(C)c1 (racemic) [Compound I-098, rac-(6R)-2-[2-chloro-5-[3-(trifluoromethyl)phenoxy]-4-pyridyl]-6-[(2,4-dimethylphenyl)methyl]-5,6-dihydro-1H-pyrimidin-4-one]
chromatographic logP (physchem; [2]): 4.62
inhibition at 20 ppm [1]: 90 to 100%
inhibition at 20 ppm (Alternaria alternata): 80 to 89%

O=C(O)c1cc(Cl)ncc1Oc1cccc(C(F)F)c1 [Compound 1-10]
LogP (physchem): 2.48^[a]

O=C(O)c1cc(Cl)ncc1Oc1cccc(Cl)c1 [Compound 1-11]
LogP (physchem): 2.76^[a]

O=C(O)c1cc(Cl)ncc1Oc1cccc(C2CC2)c1 [Compound 1-12]
LogP (physchem): 2.87^[a]

O=C(O)c1cc(Cl)ncc1Oc1cccc(C(F)(F)F)c1 [Compound 1-13, 2-chloro-5-[3-(trifluoromethyl)phenoxy]isonicotinic acid]
chromatographic logP (physchem; Table 3, compounds of formula (1), method [a]: LC-UV, acidic range, 0.1% formic acid in water and acetonitrile): 2.84

O=C(O)c1cc(Cl)nc(F)c1Oc1cccc(C(F)(F)F)c1 [Compound 1-14]
LogP (physchem): 2.95^[a]

COc1cc(C(=O)O)c(Oc2cccc(C(F)(F)F)c2)cn1 [Compound 1-15]
LogP (physchem): 2.86^[a]

O=C(O)c1c(Oc2cccc(C(F)(F)F)c2)cnc(Cl)c1I [Compound 1-17]
LogP (physchem): 2.49^[a]

Cc1ccc(CC(CON2C(=O)c3ccccc3C2=O)NC(=O)OC(C)(C)C)c(Cl)c1 (stereo not shown) [Compound 2-05]
LogP (physchem): 4.41^[a]

Cc1ccc(CC(CON)NC(=O)c2cc(Cl)ncc2Br)c(C)c1 (stereo not shown) [Compound 6-01]
LogP (physchem): 2.20^[a]

Cc1ccc(CC(CON2C(=O)c3ccccc3C2=O)NC(=O)c2cc(Cl)ncc2Br)c(C)c1 (stereo not shown) [Compound 6-02]
LogP (physchem): 4.13^[a]

N#Cc1cc(Cl)ncc1Oc1cccc(C(F)(F)F)c1 [Compound 9-01, 2-chloro-5-[3-(trifluoromethyl)phenoxy]isonicotinonitrile]
chromatographic logP (physchem; Table 15, compounds of formula (9), method [a]: LC-UV, acidic range, 0.1% formic acid in water and acetonitrile): 3.77

NC(=NO)c1cc(Cl)ncc1Oc1cccc(C(F)(F)F)c1 [Compound 10-01, 2-chloro-N′-hydroxy-5-[3-(trifluoromethyl)phenoxy]pyridine-4-carboximidamide]
chromatographic logP (physchem; Table 17, compounds of formula (10), method [a]: LC-UV, acidic range, 0.1% formic acid in water and acetonitrile): 2.41

COc1ccc(C(=O)C(F)(F)ON=C(N)c2cc(Cl)ncc2Oc2cccc(C(F)(F)F)c2)cc1 [Compound 12-09, 2-chloro-N′-[1,1-difluoro-2-(4-methoxyphenyl)-2-oxoethoxy]-5-[3-(trifluoromethyl)phenoxy]pyridine-4-carboximidamide]
chromatographic logP (physchem; Table 17, compounds of formula (12), method [a], several values joined by + in some cells): 3.65

OC1CON=C(c2cc(Cl)ncc2Oc2cccc(C(F)(F)F)c2)N1 (stereo not shown) [Compound 32-01]
LogP (physchem): 2.11^[a]

Cc1ccc(CC2CON=C(c3c(Oc4cccc(C(F)(F)F)c4)cnc(Cl)c3I)N2)c(C)c1 (stereo not shown) [Compound I-077]
LogP (physchem): 4.66^[a]

Clc1ccc(CC2CON=C(c3cc(Cl)ncc3Oc3ccc4c(c3)CCO4)N2)c(Cl)c1 (stereo not shown) [Compound I-130]
LogP (physchem): 4.30^[a]

C=CC(C)Nc1c(Cl)ncc(Oc2cccc(C(F)(F)F)c2)c1C1=NOCC(Cc2ccc(C)cc2C)N1 (stereo not shown) [Compound I-131]
LogP (physchem): 5.19^[a]

Cc1ccc(CC2CON=C(c3cc(Cl)ncc3Oc3cccc(N(C)C)c3)N2)c(C)c1 (stereo not shown) [Compound I-132]
LogP (physchem): 4.47^[a]

Cc1ccc(CC2CON=C(c3c(Oc4cccc(C(F)(F)F)c4)cnc(Cl)c3-c3ccccc3)N2)c(C)c1 (stereo not shown) [Compound I-133]
LogP (physchem): 5.04^[a]

CC(=O)Oc1cccc(Oc2cnc(Cl)cc2C2=NOCC(Cc3ccc(C)cc3C)N2)c1 (stereo not shown) [Compound I-134]
LogP (physchem): 3.90^[a]

Cc1cccc(Oc2cnc(Cl)cc2C2=NOCC(Cc3ccc(Cl)cc3Cl)N2)c1F (stereo not shown) [Compound I-135]
LogP (physchem): 4.75^[a]

Cc1ccc(CC2CON=C(c3cc(Cl)ncc3Oc3cccc(C)c3F)N2)c(Cl)c1 (stereo not shown) [Compound I-136]
LogP (physchem): 4.66^[a]

Oc1cc(C2=NOCC(Cc3ccc(Br)cc3Cl)N2)c(Oc2cccc(C(F)F)c2)cn1 (stereo not shown) [Compound I-137]
LogP (physchem): 4.56^[a]

FC(F)(F)c1cccc(Oc2cnc(Cl)cc2C2=NOCC(Cc3csc(Cl)c3)N2)c1 (stereo not shown) [Compound I-138]
LogP (physchem): 4.38^[a]

Cc1ccc(CC2CON=C(c3cc(Cl)ncc3Oc3cnc4c(c3)CCC4)N2)c(C)c1 (stereo not shown) [Compound I-140]
LogP (physchem): 3.17^[a]

CCc1cccc(Oc2cnc(Cl)cc2C2=NOCC(Cc3ccc(Cl)cc3Cl)N2)c1F (stereo not shown) [Compound I-141]
LogP (physchem): 5.16^[a]

CCOc1cccc(Oc2cnc(Cl)cc2C2=NOCC(Cc3ccc(C)cc3C)N2)c1 (stereo not shown) [Compound I-142]
LogP (physchem): 4.59^[a]

Cc1ccc(CC2CON=C(c3cc(Cl)ncc3Oc3cccc(Cl)c3F)N2)c(C)c1 (stereo not shown) [Compound I-144]
LogP (physchem): 4.59^[a]

FC(F)(F)c1cccc(Oc2cnc(Cl)cc2C2=NOCC(Cc3cc(Cl)sc3Cl)N2)c1 (stereo not shown) [Compound I-145]
LogP (physchem): 4.83^[a]

Cc1ccc(C2CCON=C(c3cc(Cl)ncc3Oc3cccc(C(F)(F)F)c3)N2)cc1 (stereo not shown) [Compound I-146]
LogP (physchem): 2.06^[a]

COc1cccc(Oc2cnc(Cl)cc2C2=NOCC(Cc3ccc(C)cc3C)N2)c1F (stereo not shown) [Compound I-147]
LogP (physchem): 4.06^[a]

FC(F)(F)Oc1cccc(Oc2cnc(Cl)cc2C2=NOCC(Cc3ccc(Cl)cc3Cl)N2)c1 (stereo not shown) [Compound I-148]
LogP (physchem): 4.88^[a]

Fc1c(Oc2cnc(Cl)cc2C2=NOCC(Cc3ccc(Cl)cc3Cl)N2)cccc1OC(F)(F)F (stereo not shown) [Compound I-149]
LogP (physchem): 4.88^[a]

Cc1ccc(CC2CON=C(c3c(Oc4cccc(C(F)(F)F)c4)cnc(Cl)c3C3CC3)N2)c(C)c1 (stereo not shown) [Compound I-150]
LogP (physchem): 4.70^[a]

Cc1cccc(CC2CON=C(c3cc(Cl)ncc3Oc3cccc(Cl)c3F)N2)c1Cl (stereo not shown) [Compound I-151]
LogP (physchem): 4.62^[a]

COc1cc(C2=NOCC(Cc3ccc(C)cc3C)N2)c(Oc2cccc(C(F)(F)F)c2)cn1 (stereo not shown) [Compound I-152]
LogP (physchem): 4.55^[a]

COCc1cccc(Oc2cnc(Cl)cc2C2=NOCC(Cc3ccc(C)cc3C)N2)c1 (stereo not shown) [Compound I-153]
LogP (physchem): 4.10^[a]

CSc1cccc(Oc2cnc(Cl)cc2C2=NOCC(Cc3ccc(C)cc3C)N2)c1F (stereo not shown) [Compound I-154]
LogP (physchem): 4.47^[a]

COc1ccc(C2CCON=C(c3cc(Cl)ncc3Oc3cccc(C(F)(F)F)c3)N2)cc1 (stereo not shown) [Compound I-155]
LogP (physchem): 1.90^[a]

C#Cc1ccc(CC2CON=C(c3cc(Cl)ncc3Oc3cccc(C(F)(F)F)c3)N2)c(C)c1 (stereo not shown) [Compound I-156]
LogP (physchem): 4.08^[a]

Cc1cccc(C2CON=C(c3cc(Cl)ncc3Oc3cccc(C(F)(F)F)c3)N2)c1C (stereo not shown) [Compound I-157]
LogP (physchem): 4.23^[a]

Cc1cc(Br)ccc1CC1CON=C(c2cc(Cl)ncc2Oc2cccc(C(F)(F)F)c2)N1 (stereo not shown) [Compound I-158]
LogP (physchem): 4.81^[a]
